Consider 22 compounds from patent publication US10829481B2, “Benzimidazole derivatives as modulators of ROR-gamma” (Vitae Pharmaceuticals, LLC, priority 2016, dated 2020).

The target of experiment [1] is full-length RORγt in Jurkat cells (Homo sapiens (Human), UniProt P51449). The experiment can be described thus: RORγt 5×RORE Assay in Jurkat Cells (Assay 2). Particulars: 5×RORE Nanoluc luciferase reporter. Type of experiment: cell-based. The method, then:
RORγt 5×RORE Assay in Jurkat Cells (Assay 2)
Compounds described herein were tested for RORγ inverse agonist activity in a cell-based, transcriptional activity assay. Secreted Nanoluc® luciferase was used as a reporter for transcriptional activity of the full-length RORγt in Jurkat cells (ATCC, Cat. #TIB-152). […] (Promega, Cat. #N1021) using KpnI and HindIII restriction sites. […] After 5-6 hrs of incubation at 37° C./5% CO2, the cells were collected, resuspended in phenol-red free RPMI media containing 10% (v/v) delipidated FBS (Hyclone, Cat. #SH30855.03) and dispensed into 96-well clear bottom tissue culture plates (CoStar, Cat. #3603), at 80,000 cells per well. Tested compounds were added to the cells in the same media (final concentration of DMSO was 0.1% (v/v)), and the plates were incubated at 37° C./5% CO2 for 16-18 hrs. Luciferase activity in the conditioned supernatants was determined with NanoGlo® assay reagents (Promega, Cat. #N1130).

The target of experiment [2] is recombinant RORγ Ligand Binding Domain (LBD) protein (Homo sapiens (Human), UniProt P51449). Put plainly: Radio-Ligand RORγ Binding Assay (Assay 1). The note with it: competition with 25-hydroxy [26,27-3H]-cholesterol, SPA. The method, then: Radio-Ligand RORγ Binding Assay (Assay 1)
Sequence of recombinant RORγ Ligand Binding Domain (LBD) protein (P51449 269-508): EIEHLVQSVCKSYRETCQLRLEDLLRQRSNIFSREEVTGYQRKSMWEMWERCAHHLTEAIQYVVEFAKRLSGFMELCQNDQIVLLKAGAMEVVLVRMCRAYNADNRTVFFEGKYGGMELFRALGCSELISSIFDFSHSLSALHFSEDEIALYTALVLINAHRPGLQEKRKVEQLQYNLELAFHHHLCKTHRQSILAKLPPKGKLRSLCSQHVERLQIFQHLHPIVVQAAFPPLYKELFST
Compounds described herein were tested for ability to bind to RORγ in a cell-free competition assay with commercially available radio-ligand (RL), 25-hydroxy [26,27-^3H]-cholesterol (PerkinElmer, Cat. #NET674250UC), for a ligand binding site on a recombinant RORγ Ligand Binding Domain (LBD) protein expressed as a 6×His-Glutathione-S-Transferase (GST) fusion. The assay was performed in 96-well SPA plates (PerkinElmer, Cat. #1450-401) in 50 mM HEPES buffer, pH 7.4, containing 150 mM NaCl, 5 mM MgCl2, 10% (v/v) glycerol, 2 mM CHAPS, 0.5 mM β-octylglucopyranoside and 5 mM DTT. Tested compounds were dissolved in DMSO, and semi-log (3.162×) serial dilutions of the compounds were prepared in the same solvent. Two μL of the DMSO solutions were mixed with 28 μL of 8.6 nM 25-hydroxy [26,27-^3H]-cholesterol and 50 μL of 24 nM RORγ LBD. The plate was shaken at 700 rpm for 20 min and incubated for 10 min at rt, after which 40 μL of poly-Lys YSi SPA beads (PerkinElmer, Cat. #RPNQ0010) were added to achieve […] of the beads per well. The plate was incubated on an orbital shaker for 20 min and then for 10 min without agitation at rt. SPA signal for tritium beta radiation was registered on PerkinElmer Microbeta plate reader. […] The percent inhibition vs. concentration data were fit into a four-parameter model, and IC50 values were calculated from the fit as the concentrations corresponding to the inflection points on the dose-response curves. Inhibitory constants (Ki) were calculated using the following equation, where [RL] is the concentration in the assay and KD is a dissociation constant of 25-hydroxy [26,27-^3H]-cholesterol: […]

Sequence of full-length RORγt in Jurkat cells (P51449 other isoform, or with tags, fused parts or gaps): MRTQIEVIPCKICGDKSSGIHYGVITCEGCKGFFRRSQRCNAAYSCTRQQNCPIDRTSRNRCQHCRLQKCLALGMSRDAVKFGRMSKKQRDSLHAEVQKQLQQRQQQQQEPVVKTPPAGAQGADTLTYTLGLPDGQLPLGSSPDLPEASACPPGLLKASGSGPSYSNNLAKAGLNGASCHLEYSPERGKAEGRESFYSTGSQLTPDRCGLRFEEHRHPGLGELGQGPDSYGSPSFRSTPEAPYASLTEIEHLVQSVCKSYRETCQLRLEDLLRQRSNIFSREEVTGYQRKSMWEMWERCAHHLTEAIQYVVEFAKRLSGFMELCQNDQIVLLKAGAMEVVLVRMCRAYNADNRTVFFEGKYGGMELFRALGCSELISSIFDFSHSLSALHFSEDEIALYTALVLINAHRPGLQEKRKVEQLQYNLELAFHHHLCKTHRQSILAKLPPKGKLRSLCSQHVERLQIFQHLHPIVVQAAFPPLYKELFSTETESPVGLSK

Compound “1-((2,2-difluorobenzo[d][1,3]dioxol-4-yl)methyl)-2-(difluoromethyl)-N-(4-((2-hydroxyethyl)sulfonyl)benzyl)-1H-benzo[d]imidazole-5-carboxamide [I-44]” had an IC50 in experiment [1] of less than 100 nM. In addition, the Ki in experiment [2] is less than 100 nM. As for “2-cyclopropyl-N-(4-(ethylsulfonyl)benzyl)-1-((6-oxo-1-(2,2,2-trifluoroethyl)-1,6-dihydropyridin-3-yl)methyl)-1H-benzo[d]imidazole-5-carboxamide [I-117]”, in experiment [2], the Ki was greater than 1000 nM.

Consider `CCOC(=O)Cc1ccc(CC(=O)Nc2ccc3c(c2)nc(C(F)(F)F)n3Cc2cccc3c2OC(F)(F)O3)cc1` [I-7, ethyl 2-(4-(2-((1-((2,2-difluorobenzo[d][1,3]dioxol-4-yl)methyl)-2-(trifluoromethyl)-1H-benzo[d]imidazol-5-yl)amino)-2-oxoethyl)phenyl)acetate], for which the Ki in experiment [2] lay in the range of 100 to 1000 nM. In experiment [1], `CCS(=O)(=O)c1ccc([C@H](CO)NC(=O)c2ccc3c(c2)nc(C2CC2)n3Cc2cccc3c2OC(F)(F)O3)cc1` [I-12, (R)-2-cyclopropyl-1-((2,2-difluorobenzo[d][1,3]dioxol-4-yl)methyl)-N-(1-(4-(ethylsulfonyl)phenyl)-2-hydroxyethyl)-1H-benzo[d]imidazole-5-carboxamide] yielded an IC50 of less than 100 nM. Regarding `CCS(=O)(=O)c1ccc([C@H](CO)NC(=O)c2ccc3c(c2)nc(C2(F)CCC2)n3Cc2cccc3c2OC(F)(F)O3)cc1` [I-19, (R)-1-((2,2-difluorobenzo[d][1,3]dioxol-4-yl)methyl)-N-(1-(4-(ethylsulfonyl)phenyl)-2-hydroxyethyl)-2-(1-fluorocyclobutyl)-1H-benzo[d]imidazole-5-carboxamide], in experiment [1], the IC50 was less than 100 nM.

With `CCS(=O)(=O)c1ccc(CNC(=O)c2ccc3c(c2)nc([C@H]2C[C@H]2C#N)n3Cc2cccc3c2OC(F)(F)O3)cc1` [I-56, 2-((1S,2R)-2-cyanocyclopropyl)-1-((2,2-difluorobenzo[d][1,3]dioxol-4-yl)methyl)-N-(4-(ethylsulfonyl)benzyl)-1H-benzo[d]imidazole-5-carboxamide], the Ki in experiment [2] fell in the range of 100 to 1000 nM.

As to `CCS(=O)(=O)c1ccc(CNC(=O)c2ccc3c(c2)nc(C(F)(F)F)n3Cc2nnc3n2CCC3)cc1` [I-86, 1-((6,7-dihydro-5H-pyrrolo[2,1-c][1,2,4]triazol-3-yl)methyl)-N-(4-(ethylsulfonyl)benzyl)-2-(trifluoromethyl)-1H-benzo[d]imidazole-5-carboxamide], in experiment [2], the Ki was greater than 1000 nM. Take `CCS(=O)(=O)c1ccc(CNC(=O)c2ccc3c(c2)nc(C2CC2)n3C[C@H]2CCN(C(=O)OC(C)(C)C)C2)cc1` [I-107, tert-butyl (R)-3-((2-cyclopropyl-5-((4-(ethylsulfonyl)benzyl)carbamoyl)-1H-benzo[d]imidazol-1-yl)methyl)pyrrolidine-1-carboxylate]: the Ki in experiment [2] is greater than 1000 nM. `CCS(=O)(=O)c1ccc(CNC(=O)c2ccc3c(c2)nc(C2CC2)n3C[C@H]2CCCN2C(=O)OC(C)(C)C)cc1` [I-108, tert-butyl (R)-2-((2-cyclopropyl-5-((4-(ethylsulfonyl)benzyl)carbamoyl)-1H-benzo[d]imidazol-1-yl)methyl)pyrrolidine-1-carboxylate]: the Ki in experiment [2] was greater than 1000 nM. In the case of `CCS(=O)(=O)c1ccc(CNC(=O)c2ccc3c(c2)nc(C2CC2)n3Cc2cnn(CC(F)(F)F)c2)cc1` [I-111, 2-cyclopropyl-N-(4-(ethylsulfonyl)benzyl)-1-((1-(2,2,2-trifluoroethyl)-1H-pyrazol-4-yl)methyl)-1H-benzo[d]imidazole-5-carboxamide], the Ki in experiment [2] is greater than 1000 nM. On to `CCS(=O)(=O)c1ccc(CNC(=O)c2ccc3c(c2)nc(C2CC2)n3Cc2cccc(C#N)c2)cc1` [I-112, 1-(3-cyanobenzyl)-2-cyclopropyl-N-(4-(ethylsulfonyl)benzyl)-1H-benzo[d]imidazole-5-carboxamide], for which the Ki in experiment [2] lay within 100 to 1000 nM. Same read-out and setting: the result for `CCS(=O)(=O)c1ccc(CNC(=O)c2ccc3c(c2)nc(C2CC2)n3Cc2ccn(CC(F)(F)F)n2)cc1` [I-114, 2-cyclopropyl-N-(4-(ethylsulfonyl)benzyl)-1-((1-(2,2,2-trifluoroethyl)-1H-pyrazol-3-yl)methyl)-1H-benzo[d]imidazole-5-carboxamide] reads greater than 1000 nM; that for `CCS(=O)(=O)c1ccc([C@@H](CO)NC(=O)c2ccc3c(c2)nc(C2CC2)n3Cc2cccc3c2OC(F)(F)O3)nc1` [I-133.2, (S)-2-cyclopropyl-1-((2,2-difluorobenzo[d][1,3]dioxol-4-yl)methyl)-N-(1-(5-(ethylsulfonyl)pyridin-2-yl)-2-hydroxyethyl)-1H-benzo[d]imidazole-5-carboxamide], 100 to 1000 nM; that for `CS(=O)(=O)c1ccc([C@H](CO)NC(=O)c2ccc3c(c2)nc(C(F)(F)F)n3Cc2cccc3c2OC(F)(F)O3)nc1` [I-135, (R)-1-((2,2-difluorobenzo[d][1,3]dioxol-4-yl)methyl)-N-(2-hydroxy-1-(5-(methylsulfonyl)pyridin-2-yl)ethyl)-2-(trifluoromethyl)-1H-benzo[d]imidazole-5-carboxamide], 100 to 1000 nM. Same read-out and setting: next, `CCS(=O)(=O)c1ccc(CNC(=O)c2ccc3c(c2)nc(C(F)(F)F)n3CC2CCN(C(=O)OC(C)(C)C)CC2)cc1` [I-145, tert-butyl 4-((5-((4-(ethylsulfonyl)benzyl)carbamoyl)-2-(trifluoromethyl)-1H-benzo[d]imidazol-1-yl)methyl)piperidine-1-carboxylate]: 100 to 1000 nM; `CCS(=O)(=O)c1ccc(CNC(=O)c2ccc3c(c2)nc(C(F)(F)F)n3Cc2cccn(C)c2=O)cc1` [I-146, N-(4-(ethylsulfonyl)benzyl)-1-((1-methyl-2-oxo-1,2-dihydropyridin-3-yl)methyl)-2-(trifluoromethyl)-1H-benzo[d]imidazole-5-carboxamide]: 100 to 1000 nM. Same read-out and setting: the result for `CCS(=O)(=O)c1ccc(CNC(=O)c2ccc3c(c2)nc(C2CC2)n3C[C@H]2CCN(CC(F)(F)F)C2)cc1` [I-156, (S)-2-cyclopropyl-N-(4-(ethylsulfonyl)benzyl)-1-((1-(2,2,2-trifluoroethyl)pyrrolidin-3-yl)methyl)-1H-benzo[d]imidazole-5-carboxamide] reads greater than 1000 nM; that for `CCS(=O)(=O)c1ccc(CNC(=O)c2ccc3c(c2)nc(C2CC2)n3C[C@H]2CCCN2CC(F)(F)F)cc1` [I-157, (R)-2-cyclopropyl-N-(4-(ethylsulfonyl)benzyl)-1-((1-(2,2,2-trifluoroethyl)pyrrolidin-2-yl)methyl)-1H-benzo[d]imidazole-5-carboxamide], greater than 1000 nM; that for `CCS(=O)(=O)c1ccc(CNC(=O)c2ccc3c(c2)nc(C2CC2)n3C[C@H]2CCN(c3ncc(F)cn3)C2)cc1` [I-159, (R)-2-cyclopropyl-N-(4-(ethylsulfonyl)benzyl)-1-((1-(5-fluoropyrimidin-2-yl)pyrrolidin-3-yl)methyl)-1H-benzo[d]imidazole-5-carboxamide], greater than 1000 nM. `CCS(=O)(=O)c1ccc(CNC(=O)c2ccc3c(c2)nc(C(F)(F)F)n3Cc2cccc3c2OC(F)(F)O3)[n+]([O-])c1` [I-161, 2-((1-((2,2-difluorobenzo[d][1,3]dioxol-4-yl)methyl)-2-(trifluoromethyl)-1H-benzo[d]imidazole-5-carboxamido)methyl)-5-(ethylsulfonyl)pyridine 1-oxide] registered an IC50 in experiment [1] of less than 100 nM.

Turning to `CN1CCN(S(C)(=O)=O)CCC1CNC(=O)c1ccc2c(c1)nc(C(F)(F)F)n2Cc1cccc2c1OC(F)(F)O2` (centres unmarked) [I-171, 1-((2,2-difluorobenzo[d][1,3]dioxol-4-yl)methyl)-N-((4-methyl-1-(methylsulfonyl)-1,4-diazepan-5-yl)methyl)-2-(trifluoromethyl)-1H-benzo[d]imidazole-5-carboxamide], the Ki in experiment [2] lay in the range of 100 to 1000 nM. Consider `CCS(=O)(=O)c1ccc(C(CO)(CO)NC(=O)c2ccc3c(c2)nc(C(F)(F)F)n3Cc2cccc3c2OC(F)(F)O3)cc1` [I-174, 1-((2,2-difluorobenzo[d][1,3]dioxol-4-yl)methyl)-N-(2-(4-(ethylsulfonyl)phenyl)-1,3-dihydroxypropan-2-yl)-2-(trifluoromethyl)-1H-benzo[d]imidazole-5-carboxamide], for which the Ki in experiment [2] is less than 100 nM.
